In patent publication US5439922A, “Piperidyl-substituted indoles for treating anxiety” (H. Lundbeck A/S, priority 1990, dated 1995):
“Also recorded” adds a separate entry of the source. Read-outs that look alike come from different tables or passages of the source.

How the values were obtained:
[1] = Catalepsy test (rat, vertical wire mesh, s.c.); conditions: sc
Source text: Evaluation of catalepsy was made according to Arnt (Eur. J. Pharmacol. 90, 47-55 (1983)). Catalepsy is an indicator of dopamine receptor blockade in vivo which corrolates to the clinical potency of the classical neuroleptics. However, catalepsy is also considered to indicate extrapyramidal side effects (Arnt, J. et al.; Neuropharrnacology 1981, 20, 1331-1334.
In this test test compound is given s.c. in different doses. The rat (170-240 g )is placed on a vertical wire mesh (mesh diameter 12 mm ). The rat is considered cataleptogenic if it remains immobile for more than 15 sec. The maximum number of rats showing catalepsy within the first 6 hours is recorded for each dose group. The results are recorded in fractions and an ED50 value is calculated by means of log-probit analysis.
The following corresponding 1-aryl-3-(1,2,3,6-tetrahydropyridyl)- or 1-aryl-3-(piperazinyl)indole derivatives which are analogues of Lu 23-174 and Compound No 12, respectively, were included in the test as comparing compounds:
A) 1-(4-Fluorophenyl)-3-[1-[2-(2-imidazolidinon-1-yl)ethyl]-1,2,3,6-tetrahydropyridin-4-yl]-5-trifluoromethyl-1H-indole
B) 5-Chloro-1-(4-fluorophenyl)-3-[1-[2-(2-imidazolidinon-1-yl)ethyl]-1,2,3,6- tetrahydro-4-pyridyl]-1H-indole
C) 5-Chloro-1-(4-fluorophenyl)-3-[4-[2-(2-imidazolidinon-1-yl)ethyl]-1-piperazinyl]-1H-indole

[2] = Inhibition of isolation induced aggression in mice; format: in vivo, mouse (male NMRI/BOM, SPF); conditions: for ED50: Mus musculus
Source text: This test is used to evaluate the ability of a test substance to inhibit isolation induced aggressive behaviour in mice and is considered to be a test model for anxiolytic effect. The method is a modified version of the method described by McMillen et al. in Drug Develop. Research 12, 53-62, 1988.
Male mice (NMRI/BOM,SPF) weighing 16-18 g were used. The mice were housed individually in macrolon cages for 3 weeks before training to attack an intruder mouse. The mice were trained daily for a period of 1-2 weeks until a satisfactory respons was obtained. During the first days the mice were trained against each other. When a satisfactory respons was obtained group-housed mice were used as intruders. The time elapsed until attack was recorded. The intruder mouse was removed as soon as an attack had occured or after 180 sec. After the training period 60-70 percent of the mice had latencies of less than 10 sec.
The mice were pretested before drug treatment. Only mice attacking within 25 sec. were used. The animals were treated with test substance or saline. The mice were tested 30 or 120 minutes later, respectively. Nonspecific motoric effects were also recorded. 8 mice were used per group.
The results were stated as fractions of mice with attack latencies greater than or equal to a threshold value. As threshold values were used 180 and 90 sec. ED50 values were calculated by log-probit analysis.
The results are given in the following table as ED50 values in μmol/kg. The known compounds diazepam, buspirone and ritanserin were included in the test for the purpose of comparison.

[3] = Light/dark discrimination test in rats; format: in vivo, rat (Wistar WU); conditions: rat, s.c.; observation 2h
Description: The test was carried out similarly to the test in mice described above, however modified in accodance with F. C. Colpaert et al., Psychopharmacology (1985) 86: 45-54. The test used Wistar WU rats.

[4] = Light/dark discrimination test in mice (two compartment activity box); format: in vivo, mouse (male albino BKW); conditions: mouse, i.p.
Description: This test was carried out in accordance with the method described in Costall et al. Br. J. Pharmacol. 90 275P (1987).
The test was conducted using a two compartment activity box in which the actions of anxiolytic compounds to reduce aversion against a brightly-lit environment may be readily detected. The box is designed as an open-top experimental box (45*27*27 cm) one third of which was partitioned from the rest, painted black and illuminated with red light. The remainder of the box was painted white and brightly illuminated (1000 W). The floor of each area was lined into squares. Behavioural changes were determined for each area from video recordings for periods of 40 min. Data obtained from dose groups of 5 animals (male albino BKW mice, 25-30 g ) were analysed using single factor analysis of variance, and Dunnett's t-test. Test compounds were given intrapentoneally 45 min before testing.
The results are given in the following Table 2 as minimum doses (mg/kg i.p.) tested showing effect (p<0.001). The behavioural change used were exploratory rearings and line crossings.
The known substances diazepam, and ondansetron were included in the test for comparison purposes.

[5] = 0.5 h, attack latency threshold 90 sec., 30 min pretreatment, read-out: ED50, threshold 90 sec., 30 min pretreatment
[6] = 0.5 h, attack latency threshold 180 sec., 30 min pretreatment, read-out: ED50, threshold 180 sec., 30 min pretreatment
[7] = 2 h, attack latency threshold 90 sec., 120 min pretreatment, read-out: ED50, threshold 90 sec., 120 min pretreatment
[8] = 2 h, attack latency threshold 180 sec., 120 min pretreatment, read-out: ED50, threshold 180 sec., 120 min pretreatment

O=C1NCCN1CCN1CC=C(c2cn(-c3ccc(F)cc3)c3ccc(C(F)(F)F)cc23)CC1 [A, 1-(4-Fluorophenyl)-3-[1-[2-(2-imidazolidinon-1-yl)ethyl]-1,2,3,6-tetrahydropyridin-4-yl]-5-trifluoromethyl-1H-indole, reference compound]
ED50 at 6 h ([1]; in vivo): 0.49 µmol/kg

O=C1NCCN1CCN1CC=C(c2cn(-c3ccc(F)cc3)c3ccc(Cl)cc23)CC1 [B, 5-Chloro-1-(4-fluorophenyl)-3-[1-[2-(2-imidazolidinon-1-yl)ethyl]-1,2,3,6-tetrahydro-4-pyridyl]-1H-indole, reference compound]
ED50 at 6 h ([1]; in vivo): 2.2 µmol/kg

O=C1CC2(CCCC2)CC(=O)N1CCCCN1CCN(c2ncccn2)CC1 [Buspirone]
ED50 [2, 5]: 9.6 µmol/kg | ED50 [2, 6]: 5.4 µmol/kg

O=C1NCCN1CCN1CCN(c2cn(-c3ccc(F)cc3)c3ccc(Cl)cc23)CC1 [C, 5-Chloro-1-(4-fluorophenyl)-3-[4-[2-(2-imidazolidinon-1-yl)ethyl]-1-piperazinyl]-1H-indole, reference compound]
ED50 at 6 h ([1]; rat): 4.5 µmol/kg

O=C1OCCN1CCN1CCC(c2cn(-c3ccc(F)cc3)c3ccc(Cl)cc23)CC1 [Compound 2, 5-chloro-1-(4-fluorophenyl)-3-[1-[2-(2-oxazolidinon-1-yl)ethyl]-4-piperidyl]-1H-indole]
ED50 at 6 h ([1]; rat): > 18 µmol/kg

CN1CCN(CCN2CCC(c3cn(-c4ccc(F)cc4)c4ccc(Cl)cc34)CC2)C1=O [Compound 3, 5-chloro-1-(4-fluorophenyl)-3-[1-[2-(3-methyl-2-imidazolidinon-1-yl)ethyl]-4-piperidyl]1H-indole]
ED50 at 6 h ([1]; in vivo): 31 µmol/kg

O=C1CCCN1CCN1CCC(c2cn(-c3ccc(F)cc3)c3ccc(Cl)cc23)CC1 [Compound 4, 5-chloro-1-(4-fluorophenyl)-3-[1-[2-(2-pyrrolidinon-1-yl)ethyl]-4-piperidyl]-1H-indole]
ED50 at 6 h ([1]; in vivo): 23 µmol/kg

O=C1NCCN1CCN1CCC(c2cn(-c3ccc(F)cc3)c3ccc(C(F)(F)F)cc23)CC1 [Compound 12, 1-(4-fluorophenyl)-3-[1-[2-(2-imidazolidinon-1-yl)ethyl]-4-piperidyl]-5-trifluomethyl-1H-indole]
ED50 at 6 h ([1]; rat): 38 µmol/kg

CC(C)N1CCN(CCN2CCC(c3cn(-c4ccc(F)cc4)c4ccc(Cl)cc34)CC2)C1=O [Compound 14, 5-chloro-1-(4-fluorophenyl)-3-[1-[2-[3-(2-propyl)-2-imidazolidinon-1-yl]ethyl]-4-piperidyl]-1H-indole]
ED50 at 6 h ([1]; rat): > 69 µmol/kg

O=C1NCCN1CCN1CCC(c2cn(-c3ccc(F)cc3)c3ccc(F)cc23)CC1 [Compound 16, 5-fluoro-1-(4-fluorophenyl)-3-[1-[2-(2-imidazolidinon-1-yl)ethyl]-4-piperidyl]-1H-indole]
ED50 [2, 7]: 2.1 µmol/kg | ED50 [2, 8]: 1.6 µmol/kg | ED50 at 6 h ([1]; rat): > 78 µmol/kg

Cc1ccc2c(c1)c(C1CCN(CCN3CCNC3=O)CC1)cn2-c1ccc(F)cc1 [Compound 24, 1-(4-fluorophenyl)-3-[1-[2-(2-imidazolidinon-1-yl)ethyl]-4-piperidyl]-5-methyl-1H-indole]
ED50 [2, 7]: 3.2 µmol/kg | ED50 [2, 8]: 2.5 µmol/kg | ED50 at 6 h ([1]; rat): > 95 µmol/kg

CN1C(=O)CN=C(c2ccccc2)c2cc(Cl)ccc21 [Diazepam]
ED50 ([2]; 0.5 h, read-out: ED50, threshold 90 sec., 30 min pretreatment): 26 µmol/kg | ED50 ([2]; 0.5 h, read-out: ED50, threshold 180 sec., 30 min pretreatment): 15 µmol/kg

O=C1NCCN1CCN1CCC(c2cn(-c3ccc(F)cc3)c3ccccc23)CC1 [Lu 23-086, 1-(4-fluorophenyl)-3-[1-[2-(2-imidazolidinon-1-yl)ethyl]-4-piperidyl]-1H-indole]
ED50 [2, 7]: 1.9 µmol/kg | ED50 [2, 8]: 1.7 µmol/kg

O=C1NCCN1CCN1CCC(c2cn(-c3ccc(F)cc3)c3ccc(Cl)cc23)CC1 [Lu 23-174, 5-chloro-1-(4-fluorophenyl)-3-[1-[2-(2-imidazolidinon-1-yl)ethyl]-4-piperidyl]-1H-indole]
ED50 [2, 5]: 4.4 µmol/kg | ED50 [2, 6]: 3.2 µmol/kg | ED50 at 6 h ([1]; rat): > 98 µmol/kg | Effect in light/dark discrimination test in rats (active dose in words) [3]: showed effect in nano molar doses/kg

Cc1nc2sccn2c(=O)c1CCN1CCC(=C(c2ccc(F)cc2)c2ccc(F)cc2)CC1 [Ritanserin]
ED50 [2, 5]: > 21 µmol/kg | ED50 [2, 6]: > 21 µmol/kg | ED50 [2, 7]: > 10 µmol/kg | ED50 [2, 8]: > 10 µmol/kg | Effect in the aggression test ([2]; mouse, in vivo): showed no effect | Effect in light/dark discrimination test in rats (active dose in words) [3]: only active in μmolar doses/kg | Effect in light/dark discrimination test in mice [4]: did not show effect; also recorded: inactive
